Laboratory results reported in ChEMBL document CHEMBL5120848, “Tapping into the antitubercular potential of 2,5-dimethylpyrroles: A structure-activity relationship interrogation” (Eur J Med Chem, 2022).
In brackets after ≈: the same amount, converted by molar mass. Activity calls are given as the source filed them. No cut-off for these calls is given here.

Key:
[1] = test system: Mycobacterium tuberculosis; assay: Anti-tubercular activity against Mycobacterium tuberculosis H37Rv assessed as inhibition of mycobacterial growth incubated for 7 days by resazurin-dye based analysis; format: functional; details: 168 h, time 7 day
[2] = Selectivity index, ratio of IC50 for cytotoxicity against human MRC5 cells to MIC90 for anti-tubercular activity against Mycobacterium tuberculosis H37Rv; format: toxicity, cell-based; details: read-out: Selectivity Index
[3] = Cytotoxicity against mouse J774.A1 cells assessed as reduction in cell viability incubated for 24 hrs by resazurin-dye based analysis; format: toxicity
[4] = Cytotoxicity against human MRC5 cells assessed as reduction in cell viability incubated for 24 hrs by resazurin-dye based analysis; format: toxicity
[5] = Selectivity index, ratio of IC50 for cytotoxicity against mouse J774.A1 cells to MIC90 for anti-tubercular activity against Mycobacterium tuberculosis H37Rv; format: toxicity, cell-based; details: read-out: Selectivity Index
[6] = test system: Mycobacterium tuberculosis; assay: Anti-tubercular activity against Mycobacterium tuberculosis CF16 assessed as inhibition of mycobacterial growth incubated for 7 days by resazurin-dye based analysis; format: functional; details: CF16, 168 h, time 7 day
[7] = test system: Mycobacterium tuberculosis; assay: Anti-tubercular activity against Mycobacterium tuberculosis CF61 assessed as inhibition of mycobacterial growth incubated for 7 days by resazurin-dye based analysis; format: functional; details: CF61, 168 h, time 7 day
[8] = test system: Mycobacterium tuberculosis; assay: Anti-tubercular activity against Mycobacterium tuberculosis CF161 assessed as inhibition of mycobacterial growth incubated for 7 days by resazurin-dye based analysis; format: functional; details: CF161, 168 h, time 7 day
[9] = test system: Mycobacterium tuberculosis; assay: Anti-tubercular activity against Mycobacterium tuberculosis CF76 assessed as inhibition of mycobacterial growth incubated for 7 days by resazurin-dye based analysis; format: functional; details: CF76, 168 h, time 7 day
[10] = test system: Mycobacterium tuberculosis; assay: Anti-tubercular activity against Mycobacterium tuberculosis CF152 assessed as inhibition of mycobacterial growth incubated for 7 days by resazurin-dye based analysis; format: functional; details: CF152, 168 h, time 7 day
[11] = test system: Mycobacterium tuberculosis; assay: Anti-tubercular activity against Mycobacterium tuberculosis infected in mouse J774.A1 cells assessed as inhibition of intracellular bacilli growth incubated for 72 hrs; format: functional, organism-based
[12] = test system: Mycobacterium tuberculosis; assay: Bactericidal activity against Mycobacterium tuberculosis H37Rv assessed as log reduction of bacterial colonies at 1XMIC measured on day 12 by time-kill kinetics analysis (reference value: 7.54 log10CFU/ml); format: functional; details: time 12 day
[13] = test system: Mycobacterium tuberculosis; assay: Bacteriostatic activity against Mycobacterium tuberculosis H37Rv at 1XMIC measured for 12 days by time-kill kinetics analysis; format: functional, organism-based; details: time 12.0 day

## Cc1cc(CNCC2CCCCC2)c(C)n1Cc1ccccn1
[1]
  MIC90: 23 µg/mL (≈ 73.9 µM)

## Cc1ccc(-n2c(C)cc(CNCC3CCCCC3)c2C)cc1
[2]
  selectivity ratio: 3.19
[1]
  MIC90: 4.88 µg/mL (≈ 15.7 µM)
[3]
  IC50 at 24 h: 25.1 µg/mL (≈ 80.7 µM)
[4]
  IC50 at 24 h: 15.6 µg/mL (≈ 50.2 µM)
[5]
  selectivity ratio: 5.13

## Cc1cc(CNCCCCCCCCNC(=N)N)c(C)n1-c1ccc(OCC(=O)N(C)C)cc1.Cl.Cl
[2]
  selectivity ratio: 4.04
[1]
  MIC90: 8.91 µg/mL
[3]
  IC50 at 24 h: 12.8 µg/mL
[4]
  IC50 at 24 h: 36 µg/mL
[5]
  selectivity ratio: 1.43

## Cc1cc(CNCCCCCCCCNC(=N)N)c(C)n1-c1ccc(OCC(=O)O)cc1.Cl.Cl
[1]
  MIC90: 13.2 µg/mL

## Cc1cc(CNCc2ccccc2)c(C)n1Cc1ccc(Cl)cc1
[1]
  MIC90: 10.6 µg/mL (≈ 31.1 µM)

## NCC[C@H](O)C(=O)N[C@@H]1C[C@H](N)[C@@H](O[C@H]2O[C@H](CN)[C@@H](O)[C@H](O)[C@H]2O)[C@H](O)[C@H]1O[C@H]1O[C@H](CO)[C@@H](O)[C@H](N)[C@H]1O [AMIKACIN]
[6]
  MIC90: 0.22 µg/mL (≈ 0.376 µM)
[1]
  MIC90: 0.25 µg/mL (≈ 0.427 µM)
[7]
  MIC90: 0.91 µg/mL (≈ 1.55 µM)
[8]
  MIC90: 0.24 µg/mL (≈ 0.41 µM)
[9]
  MIC90: 0.25 µg/mL (≈ 0.427 µM)
[10]
  MIC90: 0.19 µg/mL (≈ 0.324 µM)

## Cc1cc(CNCC2CCCCC2)c(C)n1Cc1ccc(Cl)cc1
[2]
  selectivity ratio: 7.71
[1]
  MIC90: 1.39 µg/mL (≈ 4.03 µM)
[3]
  IC50 at 24 h: 5.92 µg/mL (≈ 17.2 µM)
[4]
  IC50 at 24 h: 10.8 µg/mL (≈ 31.2 µM)
[5]
  selectivity ratio: 4.25

## NNC(=O)c1ccncc1 [ISONIAZID]
[6]
  MIC90: > 25 µg/mL
[1]
  MIC90: 0.11 µg/mL (≈ 0.802 µM)
[7]
  MIC90: > 25 µg/mL
[8]
  MIC90: > 25 µg/mL
[9]
  MIC90: > 25 µg/mL
[11]
  Activity: Active
[10]
  MIC90: > 25 µg/mL

## COc1c(N2C[C@@H]3CCCN[C@@H]3C2)c(F)cc2c(=O)c(C(=O)O)cn(C3CC3)c12 [MOXIFLOXACIN]
[6]
  MIC90: 0.14 µg/mL (≈ 0.349 µM)
[2]
  selectivity ratio: 1430
[1]
  MIC90: ≤ 0.07 µg/mL
[7]
  MIC90: 0.27 µg/mL (≈ 0.673 µM)
[8]
  MIC90: 0.17 µg/mL (≈ 0.423 µM)
[3]
  IC50 at 24 h: 14.6 µg/mL (≈ 36.3 µM)
[4]
  IC50 at 24 h: > 100 µg/mL
[9]
  MIC90: 0.2 µg/mL (≈ 0.498 µM)
[5]
  selectivity ratio: 209
[11]
  Activity: Active
[10]
  MIC90: 0.57 µg/mL (≈ 1.42 µM)

## Cc1cc(CNNC(=O)c2ccncc2)c(C)n1-c1ccc(Cl)cc1
[3]
  IC50 at 24 h: 78.5 µg/mL (≈ 221 µM)
[4]
  IC50 at 24 h: 96.1 µg/mL (≈ 271 µM)

## Cc1ccc(-n2c(C)cc(CNCc3ccccc3)c2C)cc1
[6]
  MIC90: 7.51 µg/mL (≈ 24.7 µM)
[2]
  selectivity ratio: 2.3
[1]
  MIC90: 5.58 µg/mL (≈ 18.3 µM)
[7]
  MIC90: 9.16 µg/mL (≈ 30.1 µM)
[8]
  MIC90: 6.12 µg/mL (≈ 20.1 µM)
[3]
  IC50 at 24 h: 94 µg/mL (≈ 309 µM)
[4]
  IC50 at 24 h: 13.7 µg/mL (≈ 45 µM)
[9]
  MIC90: 8.18 µg/mL (≈ 26.9 µM)
[12]
  Activity: 2.65 log10CFU/ml
[5]
  selectivity ratio: 15.8
[10]
  MIC90: 6.35 µg/mL (≈ 20.9 µM)

## Cc1cc(CNCC2CCCCC2)c(C)n1Cc1ccc(F)cc1
[6]
  MIC90: 7.69 µg/mL (≈ 23.4 µM)
[2]
  selectivity ratio: 28.8
[1]
  MIC90: 0.73 µg/mL (≈ 2.22 µM)
[7]
  MIC90: 9.38 µg/mL (≈ 28.6 µM)
[8]
  MIC90: 7.31 µg/mL (≈ 22.3 µM)
[3]
  IC50 at 24 h: 9.88 µg/mL (≈ 30.1 µM)
[4]
  IC50 at 24 h: 21 µg/mL (≈ 63.9 µM)
[9]
  MIC90: 18.8 µg/mL (≈ 57.2 µM)
[13]
  Activity: Active
[5]
  selectivity ratio: 13.6
[11]
  Activity: Active
[10]
  MIC90: 7.53 µg/mL (≈ 22.9 µM)

## CCOc1ccc(-n2c(C)cc(CNC3CCCCC3)c2C)cc1
[2]
  selectivity ratio: 3.87
[1]
  MIC90: 5.14 µg/mL (≈ 15.7 µM)
[3]
  IC50 at 24 h: 9.17 µg/mL (≈ 28.1 µM)
[4]
  IC50 at 24 h: 19.9 µg/mL (≈ 61 µM)
[5]
  selectivity ratio: 1.78

## Cc1cc(CNC2CCCCC2)c(C)n1-c1ccc(OCC(=O)N(C)C)cc1
[1]
  MIC90: > 25 µg/mL

## Cc1cc(CNCc2ccccc2)c(C)n1-c1nc2ccccc2s1
[1]
  MIC90: 11.2 µg/mL (≈ 32.1 µM)

## CO[C@H]1/C=C/O[C@@]2(C)Oc3c(C)c(O)c4c(O)c(c(/C=N/N5CCN(C)CC5)c(O)c4c3C2=O)NC(=O)/C(C)=C\C=C\[C@H](C)[C@H](O)[C@@H](C)[C@@H](O)[C@@H](C)[C@H](OC(C)=O)[C@@H]1C [RIFAMPIN]
[6]
  MIC90: 0.2 µg/mL (≈ 0.243 µM)
[1]
  MIC90: 0.05 µg/mL (≈ 0.0608 µM)
[7]
  MIC90: > 25 µg/mL
[8]
  MIC90: > 25 µg/mL
[9]
  MIC90: > 25 µg/mL
[10]
  MIC90: > 25 µg/mL

## Cc1cc(CNC2CCCCC2)c(C)n1-c1ccc(C(=O)O)cc1
[1]
  MIC90: > 25 µg/mL

## Cc1cc(CNCc2ccccc2)c(C)n1C(C)c1ccccc1 (centres undefined)
[2]
  selectivity ratio: 4.2
[1]
  MIC90: 7.94 µg/mL (≈ 24.9 µM)
[3]
  IC50 at 24 h: 17.6 µg/mL (≈ 55.1 µM)
[4]
  IC50 at 24 h: 33.3 µg/mL (≈ 105 µM)
[5]
  selectivity ratio: 2.21

## Cc1cc(CNCC2CCCCC2)c(C)n1C(C)c1ccccc1 (centres undefined)
[6]
  MIC90: 8.7 µg/mL (≈ 26.8 µM)
[2]
  selectivity ratio: 5.23
[1]
  MIC90: 4.48 µg/mL (≈ 13.8 µM)
[7]
  MIC90: 10.2 µg/mL (≈ 31.3 µM)
[8]
  MIC90: 9.94 µg/mL (≈ 30.6 µM)
[3]
  IC50 at 24 h: 60.6 µg/mL (≈ 187 µM)
[4]
  IC50 at 24 h: 23.4 µg/mL (≈ 72.2 µM)
[9]
  MIC90: 9.13 µg/mL (≈ 28.1 µM)
[12]
  Activity: 3.94 log10CFU/ml
[5]
  selectivity ratio: 13.5
[11]
  Activity: Active
[10]
  MIC90: 4.32 µg/mL (≈ 13.3 µM)

## Cc1cc(CNCc2ccccc2)c(C)n1C1CCCC1
[1]
  MIC90: 13.4 µg/mL (≈ 47.6 µM)

## Cc1cc(CNCc2ccccc2)c(C)n1-c1ccccn1
[1]
  MIC90: > 25 µg/mL

## Cc1cc(CNC2CCC(N)CC2)c(C)n1-c1ccc(Cl)cc1.Cl.Cl (centres undefined)
[1]
  MIC90: > 25 µg/mL

## Cc1cc(CNCC2CCCCC2)c(C)n1-c1nc2ccccc2s1
[6]
  MIC90: 20.1 µg/mL (≈ 56.9 µM)
[2]
  selectivity ratio: 25.8
[1]
  MIC90: 0.4 µg/mL (≈ 1.13 µM)
[7]
  MIC90: 23.5 µg/mL (≈ 66.5 µM)
[8]
  MIC90: 13.6 µg/mL (≈ 38.5 µM)
[3]
  IC50 at 24 h: 8.47 µg/mL (≈ 24 µM)
[4]
  IC50 at 24 h: 10.3 µg/mL (≈ 29.2 µM)
[9]
  MIC90: 19.6 µg/mL (≈ 55.5 µM)
[13]
  Activity: Active
[5]
  selectivity ratio: 21.2
[11]
  Activity: Active
[10]
  MIC90: 10.9 µg/mL (≈ 30.9 µM)

## Cc1cc(CNCc2ccccc2)c(C)n1Cc1ccc(F)cc1
[2]
  selectivity ratio: 2.32
[1]
  MIC90: 6.96 µg/mL (≈ 21.6 µM)
[3]
  IC50 at 24 h: 15.7 µg/mL (≈ 48.7 µM)
[4]
  IC50 at 24 h: 16.2 µg/mL (≈ 50.1 µM)
[5]
  selectivity ratio: 2.26

## Cc1cc(CNCCCCNC(=N)N)c(C)n1-c1ccc(Cl)cc1.Cl.Cl
[1]
  MIC90: 14.2 µg/mL

## Cc1cc(CNCc2ccccc2)c(C)n1CC1CCCCC1
[2]
  selectivity ratio: 2.78
[1]
  MIC90: 6.58 µg/mL (≈ 21.2 µM)
[3]
  IC50 at 24 h: 13.4 µg/mL (≈ 43.3 µM)
[4]
  IC50 at 24 h: 18.3 µg/mL (≈ 58.8 µM)
[5]
  selectivity ratio: 2.04

## Cc1cc(CNCC2CCCCC2)c(C)n1C1CCCCC1
[2]
  selectivity ratio: 15.3
[1]
  MIC90: 1.74 µg/mL (≈ 5.75 µM)
[3]
  IC50 at 24 h: 12 µg/mL (≈ 39.6 µM)
[4]
  IC50 at 24 h: 26.7 µg/mL (≈ 88.3 µM)
[5]
  selectivity ratio: 6.89

## Cc1cc(CNCC2CCCCC2)c(C)n1-c1ccccc1
[1]
  MIC90: 0.3 µg/mL (≈ 1.01 µM)

## Cc1cc(CNC2CCCCC2)c(C)n1-c1ccc(OCC(=O)O)cc1
[1]
  MIC90: 16.4 µg/mL (≈ 45.9 µM)

## Cc1cc(CNC2CCC(NC(=N)N)CC2)c(C)n1-c1ccc(Cl)cc1.Cl.Cl (centres undefined)
[1]
  MIC90: 10.4 µg/mL

## Cc1cc(CNCC2CCCCC2)c(C)n1-c1ccccn1
[1]
  MIC90: 16.3 µg/mL (≈ 54.7 µM)

## Cc1cc(CNCC2CCCCC2)c(C)n1C1CCCC1
[1]
  MIC90: 9.21 µg/mL (≈ 31.9 µM)
